How the values were obtained:
Tryptase [1] = target: T1, Tryptase (Homo sapiens, UniProt Q15661); assay: In Vitro Tryptase Inhibition Assay (hydrolysis of tosyl-GlyProLys-p-nitroanilide, Tris-HCl pH 8.2); assay type: biochemical
Procedure: Table II lists the inhibition constants (Ki ', micromolar (μM)) which were determined for several of the compounds of the present invention, wherein R^1 is hydrogen; R^2 is hydrogen; R^3 is --(CH2)3 --NH--(C=NH)--NH2; R^4 and R^5, together with the nitrogen and carbon to which they are attached form a five-membered heterocycle; and R^6 is hydrogen. […] Unlike Ki, Ki ' may not be a true dissociation constant of the enzyme-inhibitor complex; Ki ' is equal to Ki for a noncompetitive inhibitor and is directly proportional to Ki for competitive and uncompetitive inhibitors.
Generally, the assay conditions are light sensitive and variations in ambient light intensity may affect assay reproducibility. As a result of this potential source of error, some assays were run under dark conditions. The Ki 's reported in Tables II and III without parentheses were determined under conditions of ambient light. Ki 's reported with parentheses were determined under "dark" conditions as defined above.

allergic sheep [2] = assay: Allergic sheep model of asthma: specific lung resistance (SRL) after antigen challenge; assay type: in vivo; conditions: 9 mg aerosol 0.5 h before, 4 h and 24 h after antigen challenge
Procedure: (§1) The initial asthmatic response can be evaluated in guinea pigs, and dogs, and particularly, with a basenji-greyhound cross strain which develops nonspecific airway hyperresponsiveness to numerous nonallergenic substances, such as methacholine and citric acid. […] In dual responding animals, the initial asthmatic response (IAR) is followed by a late asthmatic response (LAR) at 6-8 hours post-exposure.
(§2) The allergic sheep model was used to evaluate the potential antiasthmatic effects of the compounds of the present invention.
(§3) The allergic sheep model of asthma was employed in these studies. These methods have been published previously (see Abraham et al. (1983) Am. Rev. Respir. Dis. 128:839-844; Allegra et al. (1983) J. Appl. Physiol. 55:726-730; Russi et al. (1985) J. Appl. Physiol. 59:1416-1422; Soler et al. ((1989) J. Appl. Physiol. 67:406-413. Each sheep served as its own control. Body weights for these animals ranged from 20-50 kilograms.
(§4) In these studies, 9 mg of Compound 3 of Tables I and II was dissolved in 3 mL buffered saline and the total solution delivered as an aerosol 0.5 hours before, 4 hours after, and 24 hours after antigen challenge (total dose=27; n=6). In the control (vehicle only) trial, antigen challenge caused peak early and late increases above baseline in specific lung resistance (SRL) of 374±104% and 212±21% (mean±SE). In contrast, when the sheep were treated with Compound 3 of Tables I and II, the early and late increases in SRL were 280±39% and 72±9% (p <0.05 vs. control, Wilcoxon signed rank test). The peak early response was taken as the average of the maximum values occurring immediately post-challenge. Peak late responses were calculated by averaging the maximum response values obtained for each animal within the 6-8 hour time period. This approach is conservative and eliminates the possible reduction in the late response due simply to averaging.

allergic sheep [3] = assay: Allergic sheep model: airway hyperresponsiveness to carbachol (PC400) 24 hours after antigen challenge; assay type: in vivo
Procedure: as §1, §2, §3, §4
Twenty-four hours after antigen challenge in both the control and drug trial, the sheep developed airway hyperresponsiveness. […] Baseline PC400 was 22.0±3.7 breath units in the control trial, falling to 9.1±1.3 breath units after antigen challenge (p<0.05 vs. baseline).

Tryptase [4] = target: T1, Tryptase; assay: biochemical; conditions: for Ki: Table IV
Procedure: Compounds (approx. 1 mg) to be assayed against tryptase were reconstituted in dimethylsulfoxide (DMSO) and diluted 1:10 into buffer containing 50 millimolar (mM) Tris-HCl at pH 8.2, and containing 100 mM NaCl, 0.05% Tween-20. Seven additional 3-fold dilutions were made from the initial dilution into the same buffer supplemented with 10% DMSO. Aliquots (50 μl) from each of the eight dilutions in the series were transferred to individual wells in a 96-well U-bottom microtiter plate. Tryptase (25 μl; 0.5 nM final concentration) was added to each well and the samples were mixed and incubated for 1 hr at room temperature under either ambient light (i.e., the light available in the room during the experiment) or under controlled "light" or "dark" conditions. "Light conditions" refers herein to a light intensity of 400-450 footcandles from a fluorescent bulb. "Dark" refers herein to sample containers wrapped in aluminum foil. The enzyme reaction was then initiated with the addition of the synthetic tripeptide substrate, tosyl-GlyProLys-p-nitroanilide (25 μl; 0.5 mM final concentration). The microtiter plates were immediately transferred to a UV/MAX Kinetic Microplate Reader (Molecular Devices) and hydrolysis of the chromogenic substrate was followed spectrophotometrically at […] for 5 minutes. […] Initial velocity measurements, calculated from progress curves by a kinetic analysis program called "BatchKi" (available commercially from Biokin Ltd., of Madison Wis.), were used to determine apparent inhibition constants for each inhibitor. This program is designed to perform regressions and curve-fitting of non-linear data.
Compound 3 was assayed against tryptase at four different pH's in the following buffer system: 120 mM NaCl, 2.7 mM KCl, 0.13 mM NaH2 PO4, 0.896 mM Na2 HPO4. The final buffer system used included 0.05% of Tween-20.
Thus, the assay procedure described above was performed wherein the dilution of Compound 3 and the addition of tryptase was done under ambient light at room temperature (22°-26° C.). The assay plate was wrapped in aluminum foil for a 1-hr incubation before substrate addition, which was also done under ambient light.

[5] = Table II, ambient light (no parentheses)
[6] = Table II, asterisk: "light" conditions, 400-450 footcandles
[7] = Table II, parentheses: "dark" conditions (aluminum foil)
[8] = Table III, asterisk: "light" conditions, 400-450 footcandles
[9] = Table III, parentheses: "dark" conditions (aluminum foil)

T1 sequence (Q15661 31-275): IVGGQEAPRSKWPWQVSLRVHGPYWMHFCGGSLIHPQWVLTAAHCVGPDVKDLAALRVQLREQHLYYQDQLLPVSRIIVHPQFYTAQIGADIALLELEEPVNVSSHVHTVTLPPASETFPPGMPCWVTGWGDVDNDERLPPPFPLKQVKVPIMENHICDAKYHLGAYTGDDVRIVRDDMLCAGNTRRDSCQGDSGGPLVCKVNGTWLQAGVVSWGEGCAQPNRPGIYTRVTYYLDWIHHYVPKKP

Row | SMILES | Ki (Tryptase [1]; [5]) [µM] | Ki (Tryptase [1]; [6]) [µM] | Ki (Tryptase [1]; [7]) [µM] | other results
1 | COC(=O)[C@@H]1CCCN1C(=O)[C@H](CCCNC(=N)N)NC(=O)c1c(O)ccc2ccccc12 [Compound 8] | 208 |  |  | 
2 | N=C(N)NCCC[C@H](NC(=O)c1ccc2ccccc2c1O)C(=O)N1CCC[C@H]1C(N)=O [Compound 3, 1-hydroxy-2-naphthoyl-L-arginyl-L-proline amide] |  | 0.3 | 82 | effect on early response (allergic sheep [2]): exhibited a tendency to reduce the early response; effect on late response (allergic sheep [2]; FIG. 1): attenuated the late response; late increase in SRL (peak late response above baseline, 6-8 hours) (allergic sheep [2]; n=6, mean±SE, control 212±21%, p <0.05 vs. control): 72±9%; early increase in SRL (peak early response above baseline) (allergic sheep [2]; n=6, mean±SE, control 374±104%): 280±39%; effect on 24 hour hyperresponsiveness (allergic sheep [3]; 24 h after antigen challenge, FIG. 2): blocked the 24 hour hyperresponsiveness; PC400, after antigen challenge (allergic sheep [3]; drug trial, 24 h after antigen challenge, control 9.1±1.3): 17.6±3.5 breath units; PC400 change relative to baseline (allergic sheep [3]; drug trial, after antigen challenge vs. baseline): unchanged relative to baseline; PC400, baseline (allergic sheep [3]; drug trial, baseline (before antigen challenge), control baseline 22.0±3.7): 16.0±3.8 breath units; airway function in allergen challenged sheep (allergic sheep [3]; treatment with Compound 3, allergen challenged sheep): statistically significant improvement in airway function; sensitivity to light in the buffer system (Tryptase [4]; 120 mM NaCl, 2.7 mM KCl, 0.13 mM NaH2PO4, 0.896 mM Na2HPO4, 0.05% Tween-20, pH 7.5): less sensitive to light; Ki (Tryptase [4]; pH 6.5): 14 µM; Ki (Tryptase [4]; pH 7.0): 8 µM; Ki (Tryptase [4]; pH 7.5): 5.4 µM; Ki (Tryptase [4]; pH 8.0): 6.1 µM
3 | N=C(N)NCCC[C@H](NC(=O)c1nc2ccccc2nc1O)C(=O)N1CCC[C@H]1C(N)=O [Compound 9] |  | 23 | 56 | 
4 | CN(C)C(=O)[C@@H]1CCCN1C(=O)[C@H](CCCNC(=N)N)NC(=O)c1c(O)ccc2ccccc12 [Compound 5] | 15 |  |  | 
5 | N=C(N)NCCC[C@H](NC(=O)c1ccc2ccccc2c1O)C(=O)N1C[C@H](O)C[C@H]1C(N)=O [Compound 11] |  |  |  | Ki (Tryptase [1]; [8]): 0.3 µM; Ki (Tryptase [1]; [9]): 40 µM
6 | N=C(N)NCCC[C@H](NC(=O)c1ccc2ccccc2c1O)C(=O)N1CCC[C@H]1C(=O)N1CCCC(C(N)=O)C1 (stereo partly shown) [Compound 6] | 82 |  |  | 
7 | N=C(N)NCCC[C@H](NC(=O)c1ccc2ccccc2c1O)C(=O)N1CCC[C@H]1C(=O)N[C@@H](Cc1ccccc1)C(N)=O [Compound 13] |  | 0.6 | 110 | 
8 | N=C(N)NCCC[C@H](NC(=O)c1cc2ccccc2cc1O)C(=O)N1CCC[C@H]1C(N)=O [Compound 14] |  | 752 | 707 | 
9 | N=C(N)Nc1ccc(C[C@H](NC(=O)c2ccc3ccccc3c2O)C(=O)N2CCC[C@H]2C(N)=O)cc1 [Compound 10] |  |  |  | Ki (Tryptase [1]; [8]): 2.5 µM; Ki (Tryptase [1]; [9]): 18 µM
10 | N=C(N)NCCC[C@H](NC(=O)c1ccc2ccccc2c1O)C(=O)N1CCC[C@@H]1C(N)=O [Compound 12] |  |  |  | Ki (Tryptase [1]; [8]): 2.5 µM; Ki (Tryptase [1]; [9]): 818 µM
11 | N=C(N)NCCC[C@H](NC(=O)c1ccc2ccccc2c1O)C(=O)N1CCC[C@H]1C(=O)N1CCC(C(N)=O)CC1 [Compound 7] | 664 |  |  | 
12 | COC(=O)[C@@H]1C[C@@H](O)CN1C(=O)[C@H](CCCNC(=N)N)NC(=O)c1c(O)ccc2ccccc12 [Compound 4] |  |  |  | Ki (Tryptase [1]; Table III, ambient light (no parentheses)): 749 µM
13 | CN(CC(N)=O)C(=O)[C@H](CCCNC(=N)N)NC(=O)c1c(O)ccc2ccccc12 [Compound 1] |  |  |  | Ki (Tryptase [1]; [8]): 3 µM; Ki (Tryptase [1]; [9]): 637 µM
14 | Cc1ccc(C(=O)N[C@@H](CCCNC(=N)N)C(=O)N2CCC[C@H]2C(N)=O)c(O)c1 [Compound 2] | > 500 |  |  | 

The next lines start with results.

Row | Ki (Tryptase [1]; [5]) [µM] | Ki (Tryptase [1]; [6]) [µM] | Ki (Tryptase [1]; [7]) [µM] | SMILES | other results
15 | 20 |  |  | N=C(N)NCCC[C@H](NC(=O)c1cc(O)ccc1O)C(=O)N1CCC[C@H]1C(N)=O [Compound 20] | 
16 | 0.84 |  |  | N=C(N)NCCC[C@H](NC(=O)c1c(O)ccc2ccccc12)C(=O)N1CCC[C@H]1C(N)=O [Compound 15] | 
17 |  | 18 | 149 | N=C(N)NCCC[C@H](NC(=O)c1cc(-c2ccccc2)ccc1O)C(=O)N1CCC[C@H]1C(N)=O [Compound 21] | 
18 |  | 8 | 2450 | N=C(N)NCCC[C@H](NC(=O)c1ccccc1O)C(=O)N1CCC[C@H]1C(N)=O [Compound 19] | 
19 | 900 |  |  | Cc1ccc2c(O)c(C(=O)N[C@@H](CCCNC(=N)N)C(=O)N3CCC[C@H]3C(N)=O)cnc2n1 [Compound 17] | 
20 |  | 8 | 63 | N=C(N)NCCC[C@H](NC(=O)c1ncccc1O)C(=O)N1CCC[C@H]1C(N)=O [Compound 16] | 
21 | 452 |  |  | N=C(N)NCCC[C@H](NC(=O)c1cccnc1O)C(=O)N1CCC[C@H]1C(N)=O [Compound 18] | 

Source: patent US5525623A, “Compositions and methods for the treatment of immunomediated inflammatory disorders” (Arris Pharmaceutical Corporation, priority 1994, dated 1996)
